According to patent US7585859B2, “PDE4B inhibitors and uses therefor” (Plexxikon, Inc., priority 2004, dated 2009):

What was measured:
PDE4D = target: T1, PDE4D (Homo sapiens, UniProt Q08499); experiment: PDE4 IC50 determination by Scintillation Proximity Assay, PDE4D; type: biochemical; conditions: Table 1B, Formula I compounds; read-out: IC50 PDE4D
T1 construct: PDE4D: The catalytic domain of human PDE4B from S3 16-V692; His6 (N); thrombin cleavage site (N); made in house; host or cells: E. coli
Procedure, shortened: (§1)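 Enzyme was added to compound and [^3H]cAMP, then incubated 30 min at 30° (PDE4B 80 ng/ml; PDE4D 4 ng/ml). Product [^3H]AMP bound to SPA beads and was counted. IC50 was fitted by non-linear regression against DMSO and roflumilast controls.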

[1] = target: T2, PDE4B: The catalytic domain of human PDE4B from S152-S528 (Homo sapiens, UniProt Q07343); experiment: PDE4 IC50 determination by Scintillation Proximity Assay, PDE4B; type: biochemical; conditions: Table 1B, Formula I compounds; read-out: IC50 PDE4B
T2 construct: His6 (N); thrombin cleavage site (N); made in house; host or cells: E. coli
Procedure, shortened: as §1

T2 sequence (Q07343 with tags, fused parts or gaps): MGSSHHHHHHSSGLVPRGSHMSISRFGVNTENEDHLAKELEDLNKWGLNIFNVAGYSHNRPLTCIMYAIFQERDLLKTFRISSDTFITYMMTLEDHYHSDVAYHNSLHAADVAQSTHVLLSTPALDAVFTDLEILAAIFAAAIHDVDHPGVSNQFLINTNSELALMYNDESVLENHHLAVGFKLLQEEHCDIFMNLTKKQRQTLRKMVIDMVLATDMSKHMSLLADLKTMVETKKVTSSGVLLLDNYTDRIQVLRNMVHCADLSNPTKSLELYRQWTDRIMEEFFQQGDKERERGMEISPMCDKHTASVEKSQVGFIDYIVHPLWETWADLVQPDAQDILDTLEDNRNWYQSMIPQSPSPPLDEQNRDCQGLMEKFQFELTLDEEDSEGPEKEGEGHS
T1 sequence (Q08499 380-756): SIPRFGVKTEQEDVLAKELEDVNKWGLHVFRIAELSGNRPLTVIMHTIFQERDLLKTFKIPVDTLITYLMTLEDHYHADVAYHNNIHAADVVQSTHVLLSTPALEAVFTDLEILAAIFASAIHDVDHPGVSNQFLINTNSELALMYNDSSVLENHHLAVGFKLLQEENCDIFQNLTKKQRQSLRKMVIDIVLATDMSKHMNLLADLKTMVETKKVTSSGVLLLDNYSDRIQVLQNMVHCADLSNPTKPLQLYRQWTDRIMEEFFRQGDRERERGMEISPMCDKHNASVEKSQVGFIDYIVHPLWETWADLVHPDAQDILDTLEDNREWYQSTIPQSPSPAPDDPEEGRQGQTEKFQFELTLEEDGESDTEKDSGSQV

Row | Compound | IC50 (PDE4D) [µM] | IC50 [1] [µM]
1 | N#Cc1cccc(Nc2sc(C(=O)c3ccccn3)c(N)c2C#N)c1 [Compound 1-146, 4-Amino-2-(3-cyano-phenylamino)-5-(pyridine-2-carbonyl)-thiophene-3-carbonitrile] | > 10 | < 10
2 | N#Cc1c(Nc2ccc3c(c2)CCC3)sc(C(=O)c2ccccn2)c1N [Compound 1-147, 4-Amino-2-(indan-5-ylamino)-5-(pyridine-2-carbonyl)-thiophene-3-carbonitrile] | < 10 | < 10
3 | COC(=O)c1ccccc1Nc1sc(C(=O)c2ccccn2)c(N)c1C#N [Compound 1-148, 2-[4-Amino-3-cyano-5-(pyridine-2-carbonyl)-thiophen-2-ylamino]-benzoic acid methyl ester] | < 10 | < 10
4 | COc1ccc(CNc2sc(C(=O)c3ccccn3)c(N)c2C#N)cc1OC [Compound 1-149, 4-Amino-2-(3,4-dimethoxy-benzylamino)-5-(pyridine-2-carbonyl)-thiophene-3-carbonitrile] | < 10 | < 10
5 | N#Cc1c(Nc2ccc(Oc3ccccc3)cc2)sc(C(=O)c2ccccn2)c1N [Compound 1-150, 4-Amino-2-(4-phenoxy-phenylamino)-5-(pyridine-2-carbonyl)-thiophene-3-carbonitrile] | > 10 | < 10
6 | N#Cc1c(Nc2ccc(C(=O)NC3CCOC3=O)cc2)sc(C(=O)c2ccccn2)c1N (stereo not drawn) [Compound 1-151, 4-[4-Amino-3-cyano-5-(pyridine-2-carbonyl)-thiophen-2-ylamino]-N-(2-oxo-tetrahydro-furan-3-yl)-benzamide] | > 10 | < 10
7 | N#Cc1c(NC2CCOC2=O)sc(C(=O)c2ccccn2)c1N (stereo not drawn) [Compound 1-152, 4-Amino-2-(2-oxo-tetrahydro-furan-3-ylamino)-5-(pyridine-2-carbonyl)-thiophene-3-carbonitrile] | > 10 | > 10
8 | CCc1ccccc1Nc1sc(C(=O)c2ccccn2)c(N)c1C#N [Compound 1-153, 4-Amino-2-(2-ethyl-phenylamino)-5-(pyridine-2-carbonyl)-thiophene-3-carbonitrile] | > 10 | < 10
9 | COC(=O)C(CC(C)C)Nc1sc(C(=O)c2cc(OC)ccc2OC)c(N)c1C#N (stereo not drawn) [Compound 1-154, 2-[4-Amino-3-cyano-5-(2,5-dimethoxy-benzoyl)-thiophen-2-ylamino]-4-methyl-pentanoic acid methyl ester] | > 10 | < 10
10 | COC(=O)C(CCSC)Nc1sc(C(=O)c2cccc(Cl)c2)c(N)c1C#N (stereo not drawn) [Compound 1-156] | < 10 | < 10
11 | Cc1ccc(C(=O)c2sc(Nc3ccc4c(c3)CCC4)c(C#N)c2N)c(C)c1 [Compound 1-157, 4-Amino-5-(2,4-dimethyl-benzoyl)-2-(indan-5-ylamino)-thiophene-3-carbonitrile] | < 10 | < 10
12 | Cc1ccc(C(=O)c2sc(Nc3ccc(Oc4ccccc4)cc3)c(C#N)c2N)c(C)c1 [Compound 1-158, 4-Amino-5-(2,4-dimethyl-benzoyl)-2-(4-phenoxy-phenylamino)-thiophene-3-carbonitrile] | > 10 | < 10
13 | N#Cc1c(NC2CCOC2=O)sc(C(=O)c2csc3ccccc23)c1N (stereo not drawn) [Compound 1-159, 4-Amino-5-(benzo[b]thiophene-3-carbonyl)-2-(2-oxo-tetrahydro-furan-3-ylamino)-thiophene-3-carbonitrile] | < 10 | < 10
14 | Cc1ccccc1C(=O)Nc1sc(C(=O)c2ccccn2)c(N)c1C#N [Compound 1-160, N-[4-Amino-3-cyano-5-(pyridine-2-carbonyl)-thiophen-2-yl]-2-methyl-benzamide] | > 10 | < 10
15 | COc1ccc(CNc2sc(C(=O)c3ccc(C)cc3C)c(N)c2C#N)cc1OC [Compound 1-162, 4-Amino-2-(3,4-dimethoxy-benzylamino)-5-(2,4-dimethyl-benzoyl)-thiophene-3-carbonitrile] | < 10 | < 10
16 | N#Cc1c(Nc2ccc(Oc3ccccc3)cc2)sc(C(=O)c2cccc(Cl)c2)c1N [Compound 1-163, 4-Amino-5-(3-chloro-benzoyl)-2-(4-phenoxy-phenylamino)-thiophene-3-carbonitrile] | > 10 | < 10
17 | N#Cc1c(Nc2ccc(OC(F)F)cc2)sc(C(=O)c2ccc(OC(F)F)cc2)c1N [Compound 1-165, 4-Amino-5-(4-difluoro-methoxy-benzoyl)-2-(4-difluoromethoxy-phenylamino)-thiophene-3-carbonitrile] | < 10 | < 10
18 | N#Cc1c(Nc2ccc(Cl)c(C(F)(F)F)c2)sc(C(=O)c2ccccc2)c1N [Compound 1-168, 4-Amino-5-benzoyl-2-(4-chloro-3-trifluoromethyl-phenylamino)-thiophene-3-carbonitrile] | < 10 | < 10
19 | N#Cc1c(Nc2cccc([N+](=O)[O-])c2)sc(C(=O)c2ccccc2)c1N [Compound 1-170, 4-Amino-5-benzoyl-2-(3-nitro-phenylamino)-thiophene-3-carbonitrile] | < 10 | < 10
20 | CCOC(=O)c1cc(C(=O)c2sc(Nc3cccc(SC)c3)c(C#N)c2N)on1 [Compound 1-176, 5-[3-Amino-4-cyano-5-(3-methylsulfanyl-phenylamino)-thiophene-2-carbonyl]-isoxazole-3-carboxylic acid ethyl ester] | < 10 | < 10
21 | COc1ccc(C(=O)c2sc(NC3CC3)c(C#N)c2N)cc1 [Compound 1-178, 4-Amino-2-cyclopropylamino-5-(4-methoxy-benzoyl)-thiophene-3-carbonitrile] | < 10 | < 10
22 | N#Cc1c(NC2CCCC2)sc(C(=O)C2CC2)c1N [Compound 1-179, 4-Amino-2-cyclopentylamino-5-cyclopropanecarbonyl-thiophene-3-carbonitrile] | < 10 | < 10
23 | N#Cc1c(NC2CCCC2)sc(C(=O)c2ccc(Cl)cc2)c1N [Compound 1-182, 4-Amino-5-(4-chloro-benzoyl)-2-cyclopentylamino-thiophene-3-carbonitrile] | > 10 | < 10
24 | COc1ccc(C(=O)c2sc(NC3CCCC3)c(C#N)c2N)cc1 [Compound 1-183, 4-Amino-2-cyclopentylamino-5-(4-methoxy-benzoyl)-thiophene-3-carbonitrile] | < 10 | < 10
25 | N#Cc1c(Nc2ccc(Oc3ccccc3)cc2)sc(C(=O)C2CC2)c1N [Compound 1-184, 4-Amino-5-cyclopropanecarbonyl-2-(4-phenoxy-phenylamino)-thiophene-3-carbonitrile] | < 10 | < 10
26 | N#Cc1c(Nc2ccc(Oc3ccccc3)cc2)sc(C(=O)c2ccccc2)c1N [Compound 1-185, 4-Amino-5-benzoyl-2-(4-phenoxy-phenylamino)-thiophene-3-carbonitrile] | < 10 | < 10
27 | N#Cc1c(NC2CCCC2)sc(C(N)=O)c1N [Compound 1-196, 3-Amino-4-cyano-5-cyclopentylamino-thiophene-2-carboxylic acid amide] | > 10 | > 10
